Where a name gives a salt, the structure may show the parent alone.
Molecular target: T1, human recombinant 6His-Nterm SHP2 full-length (Thr2-Arg593) (Homo sapiens, UniProt Q06124)
T1 construct: 6His-Nterm SHP2 full-length (Thr2-Arg593, R&D system); 6His (N); purchased R&D system
T1 sequence (Q06124 2-593): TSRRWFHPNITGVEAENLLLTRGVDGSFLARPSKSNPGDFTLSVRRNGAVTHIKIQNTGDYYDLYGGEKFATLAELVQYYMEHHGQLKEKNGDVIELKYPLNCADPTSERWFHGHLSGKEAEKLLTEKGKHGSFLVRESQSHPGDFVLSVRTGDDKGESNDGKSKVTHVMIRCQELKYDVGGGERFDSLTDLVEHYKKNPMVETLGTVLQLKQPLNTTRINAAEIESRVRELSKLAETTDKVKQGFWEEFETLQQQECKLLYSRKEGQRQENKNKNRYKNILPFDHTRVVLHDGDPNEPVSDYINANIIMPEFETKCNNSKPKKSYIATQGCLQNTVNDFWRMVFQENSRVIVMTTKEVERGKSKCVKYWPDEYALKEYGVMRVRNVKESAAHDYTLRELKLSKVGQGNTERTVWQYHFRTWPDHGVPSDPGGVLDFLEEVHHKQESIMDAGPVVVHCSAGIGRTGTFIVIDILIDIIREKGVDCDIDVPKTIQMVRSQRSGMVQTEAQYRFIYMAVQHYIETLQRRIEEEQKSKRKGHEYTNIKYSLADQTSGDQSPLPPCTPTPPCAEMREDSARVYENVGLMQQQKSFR
Assay: SHP2 Phosphatase Assay (DiFMUP fluorescence)
Format: biochemical
Settings: SHP2 0.2 nM pre-incubated with 100 nM bi-phosphorylated activating peptide; compound 1000-0.05 nM, 30 min pre-incubation; DiFMUP 20 µM, 45 min, room temperature; 10-concentration dose-response
Procedure: Inhibition of SHP2 phosphatase activity was evaluated using human recombinant 6His-Nterm SHP2 full-length (Thr2-Arg593, R&D system), NsCs bi-phosphorylated activating peptide (NH2-LN(pY)AQLWHA(PEG8)LTI(pY)ATIRRF-Amide.acetate, Thermofischer Scientific) and DiFMUP as surrogate phosphatase substrate (Molecular Probes). All reactions were performed at room temperature in 384-well black polystyrene non-binding plate (Corning) with the assay buffer (50 mM HEPES-NaOH pH 7.2, 100 mM NaCl, 0.5 mM EDTA, 0.001% Brij35 including 0.02% BSA and 1 mM DTT added extemporaneously). SHP2 was pre-incubated at least 10 min with the activating peptide (0.2 nM and 100 nM, respectively). 10 µL of this mixture was added to the assay plate, that already contained 15 nL of the compound (1000-0.05 nM). After 30 min pre-incubation, the enzymatic reaction was initiated by the addition of 5 µL DiFMUP in assay buffer without BSA (20 µM). The reaction was stopped by the addition of 15 µL sodium pervanadate solution (100 µM) after 45 min incubation. The fluorescence signal was measured at excitation and emission wavelengths of 350 nm and 450 nm, respectively, using a Pherastar instrument (BMG-LabTech). Percentage of inhibition […] were calculated from the fluorescence signal at 450 nm of the positive and negative control using the following formula: I% = ((signal Max−signal Sample)/(signal Max−signal Min control)) × 100 [formula]
Positive control (Max): corresponds to the maximum fluorescence signal obtained in the presence of 15 nL DMSO replacing the inhibitor in the pre-incubation step.
Negative control (Min): corresponds to the minimum signal obtained in the presence of 1 µM of RMC-4550, the structure of which is shown below: [drawing 464]
The IC50 were then calculated from a dose-response curve of 10 concentrations of tested compound using the 4-parameter logistic model: I% = A + (C)/(1 + exp(−B×log(X)−M)) [formula]
The parameters A and (A+C) are the lower and upper limits, B is the slope of the curve at the inflexion point, M parameter is the logarithm of the abscissa at the inflexion point, and X is the concentration of compound.

Compound	IC50
Cc1nc(N2CCC3(CC2)Cc2ccc(C#N)cc2[C@H]3N)c2ccnn2c1-c1cnn(C)c1C (single isomer, unassigned) [Compound 211]	8 nM
Cc1nc(N2CCC3(CC2)Cc2ccc(C#N)cc2[C@@H]3N)c2ccnn2c1-c1cnn(C)c1C (single isomer, unassigned) [Compound 212]	288 nM
Cc1nc(N2CCC3(CC2)Cc2ncccc2[C@H]3N)c2ccnn2c1-c1cccc(F)c1F [Compound 1, (5S)-1'-[7-(2,3-difluorophenyl)-6-methyl-pyrazolo[1,5-a]pyrazin-4-yl]spiro[5,7-dihydrocyclopenta[b]pyridine-6,4'-piperidine]-5-amine]	6 nM
Cc1nc(N2CCC3(CC2)Cc2ncccc2[C@H]3N)c2ccnn2c1-c1cccc(F)c1Cl [Compound 2, (5S)-1'-(7-(2-chloro-3-fluorophenyl)-6-methylpyrazolo[1,5-a]pyrazin-4-yl)-5,7-dihydrospiro[cyclopenta[b]pyridine-6,4'-piperidin]-5-amine]	6 nM
COc1cccc(-c2c(C)nc(N3CCC4(CC3)Cc3ncccc3[C@H]4N)c3ccnn23)c1Cl [Compound 3, (5S)-1'-(7-(2-chloro-3-methoxyphenyl)-6-methylpyrazolo[1,5-a]pyrazin-4-yl)-5,7-dihydrospiro [cyclopenta[b]pyridine-6,4'-piperidin] -5-amine hydrochloride]	3 nM
COc1cccc(-c2c(C)nc(N3CCC4(CC3)Cc3ncccc3[C@H]4N)c3ccnn23)c1F [Compound 4, (5S)-1'-[7-(2-fluoro-3-methoxy-phenyl)-6-methyl-pyrazolo [1 ,5-a]pyrazin-4-yl]spiro[5,7-dihydrocyclopenta[b]pyridine-6,4'-piperidine] -5-amine]	7 nM
COc1c(F)ccc(-c2c(C)nc(N3CCC4(CC3)Cc3ncccc3[C@H]4N)c3ccnn23)c1F [Compound 5, (5S)-1'-[7-(2,4-difluoro-3-methoxy-phenyl)-6-methyl-pyrazolo [1 ,5-a]pyrazin-4-yl]spiro[5,7-dihydrocyclopenta[b]pyridine-6,4'-piperidine] -5-amine]	3 nM
COc1ccc2c(c1)CC1(CCN(c3nc(C)c(-c4ccnc(C)c4Cl)n4nccc34)CC1)[C@@H]2N [Compound 6, (1S)-1'-[7-(3-chloro-2-methyl-4-pyridyl)-6-methyl-pyrazolo[1,5-a]pyrazin-4-yl]-5-methoxy-spiro[indane-2,4'-piperidine]-1-amine]	8 nM
Cc1nc(N2CCC3(CC2)Cc2ncccc2[C@H]3N)c2ccnn2c1-c1ccnc(C(C)C)c1Cl [Compound 7, (5S)-1'-[7-(3-chloro-2-isopropyl-4-pyridyl)-6-methyl-pyrazolo[1,5-a]pyrazin-4-yl]spiro[5,7-dihydrocyclopenta[b]pyridine-6,4'-piperidine] -5-amine hydrochloride]	13 nM
Cc1cnc2c(c1)[C@@H](N)C1(CCN(c3nc(C)c(-c4ccccc4F)n4nccc34)CC1)C2 [Compound 8, (5S)-1'-[7-(2-fluorophenyl)-6-methyl-pyrazolo[1,5-a]pyrazin-4-yl]-3-methyl-spiro[5,7-dihydrocyclopenta[b]pyridine-6,4'-piperidine] -5-amine]	6 nM
COc1ccc2c(c1)[C@@H](N)C1(CCN(c3nc(C)c(-c4cccc(F)c4Cl)n4nccc34)CC1)C2 [Compound 9, (1S)-1'-[7-(2-chloro-3-fluorophenyl)-6-methyl-pyrazolo[1,5-a]pyrazin-4-yl]-6-methoxy-spiro[indane-2,4'-piperidine]-1-amine hydrochloride]	43 nM
COc1ccc2c(c1)[C@@H](N)C1(CCN(c3nc(C)c(-c4ccnc(C)c4Cl)n4nccc34)CC1)C2 [Compound 10, (1S)-1'-[7-(3-chloro-2-methyl-4-pyridyl)-6-methyl-pyrazolo [1,5-a]pyrazin-4-yl]-6-methoxy-spiro[indane-2,4'-piperidine]-1-amine hydrochloride]	11 nM
COc1ccc2c(c1)[C@@H](N)C1(CCN(c3nc(C)c(-c4ccccc4F)n4nccc34)CC1)C2 [Compound 11, (1S)-1'-[7-(2-fluorophenyl)-6-methyl-pyrazolo[1,5-a]pyrazin-4yl]-6-methoxy-spiro[indane-2,4'-piperidine]-1-amine hydrochloride]	23 nM
Cc1nc(N2CCC3(CC2)Cc2cccnc2[C@H]3N)c2ccnn2c1-c1cccc(F)c1Cl [Compound 12, (7S)-1'-[7-(2-chloro-3-fluorophenyl)-6-methyl-pyrazolo[1,5-a]pyrazin-4-yl]spiro[5,7-dihydrocyclopenta[b]pyridine-6,4'-piperidine]-7-amine]	14 nM
Cc1nccc(-c2c(C)nc(N3CCC4(CC3)Cc3cccnc3[C@H]4N)c3ccnn23)c1Cl [Compound 13, (7S)-1'-[7-(3-chloro-2-methyl-4-pyridyl)-6-methyl-pyrazolo[1,5-a]pyrazin-4-yl]spiro[5,7-dihydrocyclopenta[b]pyridine-6,4'-piperidine]-7-amine]	7 nM
Cc1nc(N2CCC3(CC2)Oc2ncccc2[C@H]3N)c2ccnn2c1-c1cccc(F)c1Cl [Compound 14, (3R)-1'-[7-(2-chloro-3-fluorophenyl)-6-methyl-pyrazolo [1 ,5-a]pyrazin-4-yl]spiro[3H-furo[2,3-b]pyridine-2,4'-piperidine]-3-amine]	40 nM
Cc1nccc(-c2c(C)nc(N3CCC4(CC3)Oc3ncccc3[C@H]4N)c3ccnn23)c1Cl [Compound 15, (3R)-1'-[7-(3-chloro-2-methyl-4-pyridyl)-6-methyl-pyrazolo[1,5-a]pyrazin-4-yl]spiro[3H-furo[2,3-b]pyridine-2,4'-piperidine]-3-amine]	20 nM
Cc1nc(N2CCC3(CC2)Oc2ncccc2[C@H]3N)c2ccnn2c1-c1ccc(F)c2cc[nH]c12 [Compound 16, (3R)-1'-[7-(4-fluoro-1H-indol-7-yl)-6-methyl-pyrazolo[1,5-a]pyrazin-4-yl]spiro[3H-furo[2,3-b]pyridine-2,4'-piperidine]-3-amine]	42 nM
Cc1nc(N2CCC3(CC2)Oc2ncccc2[C@H]3N)c2ccnn2c1-c1cccc(Cl)c1Cl [Compound 17, (3R)-1'-[7-(2,3-dichlorophenyl)-6-methyl-pyrazolo[1,5-a]pyrazin-4-yl]spiro[3H-furo[2,3-b]pyridine-2,4'-piperidine]-3-amine]	39 nM
Cc1nc(N2CCC3(CC2)Oc2ccccc2[C@H]3N)c2ccnn2c1-c1ccc(F)c2cc[nH]c12 [Compound 18, (3R)-1'-[7-(4-fluoro-1H-indol-7-yl)-6-methyl-pyrazolo[1,5-a]pyrazin-4-yl] spiro [3H-benzofuran-2,4'-piperidine] -3 - amine]	132 nM
Cc1nc(N2CCC3(CC2)Oc2ccccc2[C@H]3N)c2ccnn2c1-c1cccc(Cl)c1Cl [Compound 19, (3R)-1'-[7-(2,3-dichlorophenyl)-6-methyl-pyrazolo [1 ,5-a]pyrazin-4-yl]spiro[3H-benzofuran-2,4'-piperidine]-3-amine]	102 nM
Cc1nc(N2CCC3(CC2)Oc2ccccc2[C@H]3N)c2ccnn2c1-c1cccc(F)c1Cl [Compound 20, (3R)-1'-[7-(2-chloro-3-fluorophenyl)-6-methyl-pyrazolo[1,5-a]pyrazin-4-yl]spiro[3H-benzofuran-2,4'-piperidine]-3-amine]	115 nM

Reference: patent EP4227307A1 (Genzyme Corporation, priority 2022, dated 2023)
